Test results reported in patent publication US6562627B1, “High throughput method for measurement of physicochemical values” (BDC Pharma LLC, priority 1998, dated 2003).
Where a name gives a salt, the structure may show the parent alone. Read-outs that look alike come from different tables or passages of the source.

Assays:
[1] = cited from earlier work
[2] = cited from earlier work; remark: listed apart in the source
[3] = Text: (§1) k′app=k′HA([H^+]+^surfaceKa)/([H^+]+^bulkKa) Eq. 7
(§2) where k′app is the capacity factor of the test compound measured at different mobile phase pH conditions, and k′HA is the capacity factor of the non-ionized species. Nonlinear fitting of the three experimentally measured parameters [H+], k′app, and k′HA to eq. 7 can be used to obtain numerical estimates for both ^surface Ka and ^bulkKa of the compound.
(§3) k′app=k′A^−([H^+]/^surfaceKa+1)/([H^+]/^bulkKa+1) Eq. 8
(§4) The reason for developing eq. 7 is that eq. […] Both parameters (k′HA and k′A^−) can be treated as unknowns in the equations (like ^bulkKa and ^surfaceKa), and the experimental data can be used to calculate (by non-linear curve fitting) three parameters (k′HA (or k′A^−) and ^bulkKa and ^surfaceKa) instead of two (^bulkKa and ^surfaceKa). This reduces the number of experimental data to be collected, and still allows the determination of the desired parameters (^bulkKa and ^surfaceKa).
(§5) The conventional thinking regarding equations 7 and 8 is that k′HA and k′A^− (the capacity factors of the […] species) are constants that have to be determined experimentally in order to calculate ^bulkpKa and ^surfacepKa. […] This is problematic because it may require use of pH's greater than 8-9, which in the case of some test surfaces causes deterioration. […] If sufficient data are collected (no matter what the pH range is), non-linear curve fitting techniques can be used to fit three parameters (^bulkpKa, ^surfacepKa and k′HA (or k′A^−, depending on whether you use Eq. 7 or Eq. 8)) instead of two (^bulkpKa and ^surfacepKa).
(§6) The test compounds were injected as two distinct mixtures (acidic and basic compounds) to avoid acid/base interactions during the chromatographic runs. […] The retention time (tr) was determined for each compound and the corresponding capacity factor k′app was calculated. Between each run, column degradation was evaluated by running the standard compounds at pH=7.4.
(§7) The retention time of each compound was determined using the Esquire Data Analysis software. The capacity factors k′app were calculated using the equation: k′app=(tr−t0)/t0 where the tr is the retention time, and t0 is the dead time. The final ^surfaceKa and ^bulkKa were calculated by nonlinear least square curve fitting of the following equations:
(§8) k′app=k′HA([H^+]+^surfaceKa)/([H^+]+^bulkKa) (Eq. 7 as shown above).
(§9) k′app=k′A^−([H^+]/^surfaceKa+1)/([H^+]/+^bulkKa+1) (Eq. 8 as shown above).
(§10) [H^+] was calculated from the mobile phase pH values used for the experiment. The fitting parameters were k′A^−, ^surfaceKa, and ^bulkKa for the acidic compounds and kHA, ^surfaceKa, and ^bulkKa for the basic compounds.
(§11) The nonlinear fitting function is from the commercial software S-PLUS (MathSoft). Briefly, the function tries to estimate the parameters to minimize the sum of the squared differences between the response and the prediction. We collected data at 15 different pH values. […] Like all silica based chromatography material, Immobilized Artificial Membranes (IAM's) are unstable in the presence of chemically basic mobile phase, and column lifetimes decrease under these conditions. Thus it is not possible to continuously perfuse IAM columns with basic mobile phases for extended periods of time. […] In summary, 12 points were used to curve fit the data.
(§12) For each compound, the retention time (tr) was determined and the corresponding capacity factor (k′app) was calculated under various mobile phase pH conditions.

[4] = remark: listed apart in the source
Text: as §1, §2, §3, §4, §5
The data was collected on 4.6×30 mm^esterIAM.PC^C10/C3 columns. Four ^esterIAM.PC^C10/C3 columns were used to collect all the experimental data.
as §6, §7, §8, §9, §10, §11, §12

[5] = literature, cited from earlier work; for bulkpka2 (Ref.): second ionizable group
[6] = Capacity factor (k′app) by LC/MS on an immobilized artificial membrane column at varied mobile phase pH; format: physicochemical
[7] = 0.01 M PBS mobile phase, 12 pH points 4.05 to 8.06, monovalent equations
[8] = esterIAM.PC C10/C3 column, 0.01 M PBS mobile phase, 12 pH points 4.05 to 8.06, monovalent equations

For `CCCCCCCCCCCCC/C=C/[C@@H](O)[C@H](CO)N(C)C` [DMS, N,N-Dimethyl-D-sphingosine], the fraction protonated ([1]; at physiological pH) is listed as 90% and the “membrane bound pKa value” [1] is listed as 8.8.
For `CCCCNc1ccc(C(=O)OCCN(C)C)cc1` [TTC, tetracaine hydrochloride], the “location in the membrane” value ([2]; pH 5.5, positively charged form) is given as “resides near the phospholipid head group region” and the “location in the membrane” value ([2]; pH 9.0, uncharged form) is given as “penetrates more deeply into the hydrocarbon region of the membrane”.
In the case of `CC[C@H]1[C@@H]2C[C@H]3[C@@H]4N(C)c5ccccc5[C@]45C[C@@H]([C@H]2[C@H]5O)N3[C@@H]1O` [ajmaline], the “bulkpKa (Exp.)” value [3, 7] is given as 7.43, the “surfacepKa (Exp.)” value [4, 8] is given as 6.75 and the “bulkpKa1 (Ref.)” value ([5]; 20° C., DMFA/H2O-80%) is given as 8.1.
For `COc1cc2c(cc1OC)[C@@]13CCN4CC5=CCO[C@H]6CC(=O)N2[C@H]1[C@H]6[C@H]5C[C@H]43` [brucine], the “bulkpKa (Exp.)” value [3, 7] is listed as 7.9, the “surfacepKa (Exp.)” value [4, 8] is listed as 6.55 and the “bulkpKa1 (Ref.)” value ([5]; conditions not given) is listed as 6.04. For the same molecule, the “bulkpka2 (Ref.)” value [5] was 11.70.
For `CN(C)CCOC(C)(c1ccccc1)c1ccccn1` (centres unmarked) [doxylamine], the “bulkpKa (Exp.)” value [3, 7] is given as 7.93, the “surfacepKa (Exp.)” value [4, 8] is given as 6.72 and the “bulkpKa1 (Ref.)” value ([5]; conditions not given) is given as 7.64. The “bulkpka2 (Ref.)” value [5] was 9.20.
In the case of `CCC[C@@H]1C[C@@H](C(=O)N[C@@H]([C@H]2O[C@H](SC)[C@H](O)[C@@H](O)[C@H]2O)[C@@H](C)O)N(C)C1` [lincomycin], the “bulkpKa (Exp.)” value [3] is listed as 7.54, the “surfacepKa (Exp.)” value [4] is listed as 6.28 and the “bulkpKa1 (Ref.)” value ([5]; conditions not given) is listed as 7.5.
For `COc1ccc(OC)c(C(O)CNC(=O)CN)c1` (centres unmarked) [midodrine], the “bulkpKa (Exp.)” value [3] is given as 6.65, the “surfacepKa (Exp.)” value [4] is given as 6.18 and the “bulkpKa1 (Ref.)” value ([5]; 0.3% aq. soln) is given as 7.80.
In the case of `Cc1cc(-c2ccccc2)nnc1NCCN1CCOCC1` [minaprine], the “bulkpKa (Exp.)” value [3] is given as 6.75, the “surfacepKa (Exp.)” value [4] is given as 5.75 and the “bulkpKa1 (Ref.)” value ([5]; conditions not given) is given as 7.05. The “bulkpka2 (Ref.)” value [5] was 4.
In the case of `CCn1cc(C(=O)O)c(=O)c2ccc(C)nc21` [nalldixic acid], the “bulkpKa (Exp.)” value [3, 7] is given as 6.03, the “surfacepKa (Exp.)” value [4, 8] is given as 7.54 and the “bulkpKa1 (Ref.)” value ([5]; conditions not given) is given as 6.02.
In the case of `C=C1CC[C@@]2(O)[C@H]3Cc4ccc(O)c5c4[C@@]2(CCN3CC2CC2)[C@H]1O5` [nalmefene], the “bulkpKa (Exp.)” value [3, 7] is listed as 7.81, the “surfacepKa (Exp.)” value [4, 8] is listed as 6.88 and the “bulkpKa1 (Ref.)” value ([5]; conditions not given) is listed as 7.63.
In the case of `C=CCN1CC[C@]23c4c5ccc(O)c4O[C@H]2[C@@H](O)C=C[C@H]3[C@H]1C5` [nalorphine], the “bulkpKa (Exp.)” value [3, 7] is listed as 7.63, the “surfacepKa (Exp.)” value [4, 8] is listed as 6.04 and the “bulkpKa1 (Ref.)” value ([5]; conditions not given) is listed as 7.8.
In the case of `C=CCN1CC[C@]23c4c5ccc(O)c4O[C@H]2C(=O)CC[C@@]3(O)[C@H]1C5` [naloxone], the “bulkpKa (Exp.)” value [3, 7] is reported as 7.84 and the “surfacepKa (Exp.)” value [4, 8] is reported as 6.24.
In the case of `CC1COc2c(N3CCN(C)CC3)c(F)cc3c(=O)c(C(=O)O)cn1c23` (centres unmarked) [ofloxacin], the “bulkpKa (Exp.)” value [3, 7] is listed as 6.84, the “surfacepKa (Exp.)” value [4, 8] is listed as 7.32 and the “bulkpKa1 (Ref.)” value ([5]; conditions not given) is listed as 5.74. For the same molecule, the “bulkpka2 (Ref.)” value [5] was 7.9.
For `COc1cc(NS(=O)(=O)c2ccc(N)cc2)nc(OC)n1` [sulfadimethoxine], the “Capacity Factor (k′app) on IAM.PC Surface” value (shortened to “Capacity Factor (k′app)”) ([6]; mobile phase pH 4.05) was 152.07, the “Capacity Factor (k′app)” value ([6]; mobile phase pH 4.53 (not used for curve fit)) was 131.83 and the “Capacity Factor (k′app)” value ([6]; mobile phase pH 5.01) was 131.23. For the same molecule, the “Capacity Factor (k′app)” value ([6]; mobile phase pH 5.51) was 116.77, the “Capacity Factor (k′app)” value ([6]; mobile phase pH 6.10) was 67.79 and the “Capacity Factor (k′app)” value ([6]; mobile phase pH 6.38) was 46.54. The “Capacity Factor (k′app)” value ([6]; mobile phase pH 6.71) was 28.10, the “Capacity Factor (k′app)” value ([6]; mobile phase pH 7.00) was 19.48 and the “Capacity Factor (k′app)” value ([6]; mobile phase pH 7.17) was 13.49. The “Capacity Factor (k′app)” value ([6]; mobile phase pH 7.45) was 8.24, the “Capacity Factor (k′app)” value ([6]; mobile phase pH 7.69) was 6.40 and the “Capacity Factor (k′app)” value ([6]; mobile phase pH 7.91) was 4.85. The “Capacity Factor (k′app)” value ([6]; mobile phase pH 8.06) was 3.52, the “Capacity Factor (k′app)” value ([6]; mobile phase pH 8.81 (column degradation, not used for curve fit)) was 2.84 and the “Capacity Factor (k′app)” value ([6]; mobile phase pH 10.42 (column degradation, not used for curve fit)) was 0.71. For the same molecule, the “bulkpKa (Exp.)” value [3, 7] was 6.02 and the “surfacepKa (Exp.)” value [4, 8] was 7.64.
For `COc1cc2nc(N3CCN(C(=O)C4CCCO4)CC3)nc(N)c2cc1OC` (centres unmarked) [terazosin], the “bulkpKa (Exp.)” value [3] is listed as 6.65, the “surfacepKa (Exp.)” value [4] is listed as 6.17 and the “bulkpKa1 (Ref.)” value ([5]; 0.1 N NaOH) is listed as 7.1.
With `CC(=O)CC(c1ccccc1)c1c(O)c2ccccc2oc1=O` (centres unmarked) [warfarin] the “bulkpKa (Exp.)” value [3, 7] was 5.43 and the “surfacepKa (Exp.)” value [4, 8] was 7.
